Entries after “also recorded” stand apart in the source; their conditions may differ. Where no end group is shown, it is not given here.
What was measured:
RSV = assay: Infectivity inhibition by natural and synthetic RIP, RSV in HEp2; assay type: cell-based, respiratory syncytial virus; settings: 10 μg/ml; for Log TCID/50: six days
Procedure: (§1) Infectivity Inhibition of RNA Viruses by Synthetic RIP: For comparison, the natural and the synthetic RIPs were tested in cell cultures infected with different RNA viruses. The cell line MA 104 was used for infecting rotavirus SA 11 strain. HEp2 cells were used for infecting RSV and PIV3 viruses. The cells were infected in serial dilutions from 10^−2 to 10^−8; three wells were used for each dilution. After absorption of the virus, the cultures were divided into three groups. Group one received medium containing PBS as a positive control, group two received medium containing 10 μg/ml of natural RIP, and for the remaining group the medium was incorporated with 10 μg/ml synthetic RIP. The tests were read after six days and TCID/50 were calculated from CPE.
The approved drug ribovirin was tested for RSV virus in HEp2 cells at 10 μg/ml concentration. […] Synthetic RIP should be more inhibitory by increasing the concentration.

rotavirus strain SA 11 = assay: Biological activity of trypsin fragments and synthetic versions, MA104 cells infected with rotavirus; assay type: cell-based; settings: tested at 20, 10, 5, 2.5, and 1.0 μg/ml
Procedure: Biological Activity of Fragments: Initially, the inhibitory activity of the fragments was tested on African green monkey kidney cells MA104 infected with rotavirus strain SA 11. Dulbecco Modified Eagle's Medium (DMEM) containing 10% newborn calf serum (NBCS), L-glutamine and the antibiotics penicillin and streptomycin was used to grow MA 104 and HEp2 cells into monolayers after being monodispersed with a mixture of trypsin/EDTA. The same medium without serum, containing 1 μg/ml trypsin, designated as “special medium,” was used after infecting MA 104 cells with SA 11 virus including the controls. Initially, each fraction was tested on monolayers of MA 104 cells grown in 48 well plates and infected at 10^−2 dilution of SA 11 virus. Before infecting, MA 104 cells were washed with serum free medium. The virus was allowed to absorb for 1 hour at 37° C. in a humid CO2 incubator. After absorption, 0.9 ml of medium was added to each well. Each fraction was tested at the concentration of 20, 10, 5, 2.5, and 1.0 μg/ml. Cells infected with virus received PBS to serve as positive controls, for virus CPE. The tests were read after six days.
The sequencing and synthesis was contracted out to the Protein Core Laboratory of Baylor College of Medicine, Houston, Tex.

rotavirus SA 11 strain = assay: Infectivity inhibition by natural and synthetic RIP, rotavirus in MA 104; assay type: cell-based; settings: 10 μg/ml; for Log TCID/50: six days
Procedure: as §1

PIV3 = assay: Infectivity inhibition by natural and synthetic RIP, PIV3 in HEp2; assay type: cell-based, human parainfluenza type 3; settings: 10 μg/ml
Procedure: as §1

Molecule: NC(=O)c1ncn([C@@H]2O[C@H](CO)[C@@H](O)[C@H]2O)n1 [ribovirin, reference compound]
- Log TCID/50 (RSV): 5.4 Log TCID/50

Molecule: A K A G S (AKAGS; SYNTHESIZED. CORRESPONDS TO POSITIONS 1-5 OF SEQ. ID. NO. 2) [SEQ. ID. NO.: 5, synthetic version, five amino acids]
- antiviral activity (inhibition of rotavirus) of fragment and synthetic versions (rotavirus strain SA 11): good results

Molecule: A K A G S D N T K G G V Y P M (ALAGSDNTKGGVYPM; SYNTHESIZED. CORRESPONDS TO POSITIONS 1-15 OF SEQ. ID. NO. 2) [SEQ. ID. NO.: 3, synthetic version, 15 amino acids]
- antiviral activity (inhibition of rotavirus) of fragment and synthetic versions (rotavirus strain SA 11): effective; also recorded: good results

Molecule: AKAGSDNTKG [synthetic RIP]
- Log Inhibition of infectivity (rotavirus SA 11 strain): 1.9 Log
- Log TCID/50 (rotavirus SA 11 strain): 4.5 Log TCID/50
- Log TCID/50 (rotavirus SA 11 strain; listed as Syn RIP): 4.3 Log TCID/50
- Log Inhibition of infectivity (RSV): 1.7 Log
- Log TCID/50 (RSV): 5.8 Log TCID/50
- Log TCID/50 (RSV; listed as Syn RIP): 4.5 Log TCID/50
- Log Inhibition of infectivity (PIV3): 2.0 Log
- Log TCID/50 (PIV3; six days): 5.8 Log TCID/50
- antiviral activity (inhibition of rotavirus) of fragment and synthetic versions (rotavirus strain SA 11; listed as SEQ. ID. NO.: 4): most active domain; also recorded: good results
- antiviral activity (inhibition of rotavirus) of fragment and synthetic versions (rotavirus strain SA 11; listed as SEQ. ID. No.: 4): the most inhibition

Molecule: AKAGSDNTKGGVYPMFGM [SEQ ID. NO.: 2]
- antiviral activity (inhibition of rotavirus) of fragment and synthetic versions (rotavirus strain SA 11): most active fragment
- antiviral activity (inhibition of rotavirus) of fragment and synthetic versions (rotavirus strain SA 11; listed as SEQ. ID. NO.: 2): effective; also recorded: good results

Source: US6924353B2, “Inhibitors for RNA viruses” (priority 2003, dated 2005)
